{
  "source": "patent EP0030835A1",
  "about": "“Derivatives of 2-substituted-6-phenyl-3(2H)pyridazinone, their production and pharmaceutical compositions containing them” (MORISHITA PHARMACEUTICAL CO. LTD., priority 1979, dated 1981)",
  "key": {"[1]": {"experiment": "Acute oral toxicity (LD50 p.o.)", "conditions": "rat, in vivo, rats, read-out: Acute oral toxicity (LD50,kgx10^-6/kg)"}, "gastric secretion": {"system": "gastric secretion", "experiment": "Effects on gastric secretion (pylorus-ligated rats)", "format": "in vivo", "conditions": "Rattus norvegicus, intraduodenal, 100 mg/kg intraduodenally, pylorus ligature, gastric juice collected after 7 hours, read-out: Rate of inhibition, Gastric secretion (%)", "method": "One group of 10 rats of body weight of from 1.5x10^-1 to 1.8x10^-1 kg (150 to 180g) was subjected to ligature of the pylorus after 24-hours fasting, under ether-anaesthesia, and one of the compounds of the present invention or the reference compound was administered as a dispersion in an aqueous 1% CMC solution into the duodenum. Only an aqueous 1% CMC solution was administered into the duodenum of a control group of 10 rats. After 7 hours from closing the abdomen, the stomach was extirpated under ether-anaesthesia to collect the gastric juice that had accumulated in it. The inhibiting effect of each drug on gastric secretion was calculated by the following formula: [formula] wherein Amount of gastric juice of control group = A ml Amount of gastric juice of test group = B ml The results are also shown in Table 1.\n(§1) Note: ^* The structure of the compounds of the invention is expressed by the formula: [drawing 8] **The structure of the reference compound is expressed by the formula: [drawing 9] **Experiments were carried out on rats and the rate of inhibition was obtained at a dose of 10^-4 kg/kg (100 mg/kg) orally or intraduodenally."}, "Shay's ulcer": {"system": "Shay's ulcer", "experiment": "Shay's ulcer", "format": "in vivo", "conditions": "Rattus norvegicus, intraduodenal; rats, 100 mg/kg intraduodenally, pylorus ligature, 18 hours, ulcer area of forestomach; read-out: Rate of inhibition, Shay's ulcer (%)", "method": "Two groups of rats of body weight of from 2x10^-1 to 2.5x10^-1 kg (200 to 250 g), each group consisting of 10 animals, were treated under ether-anaesthesia by ligature of the pylorus after 48 hour-fasting (during which water was taken ad lib.) and, just after the operation, an aqueous suspension of one of the compounds of the invention in a 1% solution of carboxymethylcellulose (hereinafter referred to as CMC) was administered intraduodenally to the rats in one group at a dose of 10^-4 kg/kg (100 mg/kg). The other group (control) was given an aqueous 1% solution of CMC intraduodenally. After keeping these animals for 18 hours without giving them any food and water, their stomachs were extirpated under ether anaesthesia and the area (m^2x10^-6) (mm ) of the ulcer generated on the forestomach part of the rats was determined under an anatomical microscope. The total area of the ulcers of one group was represented by an ulcer coefficient. The rate of inhibition of the occurrence of ulcers (%) was obtained by calculation according to the following formula: Rate of inhibition of the occurrence of ulcers (%)= 100 x (Ulcer coeff. of control qp) - (Ulcer coeff. of test qp) (ulcer coeff.of control gp)\nas §1"}, "Stress ulcer": {"system": "Stress ulcer", "experiment": "Stress ulcer (restriction in water)", "format": "in vivo", "conditions": "Rattus norvegicus, po; rats, 100 mg/kg orally, immersed in water at 23°C for 20 hours, length of erosion; read-out: Rate of inhibition, Stress ulcer (%)", "method": "One group of 10 rats of body weight of from 2x10^-1 to 2.5x10^-1kg (200 to 250 g) after oral administration of an aqueous suspension of the compound of the invention being tested in a 1% CMC solution at a dose of 10^-4 kg/kg (100 mg/kg) were kept in stress cages and immersed in water at a temperature of 23°C to the depth of their thorax for 20 hours to give a stress of restriction in water. Another group of 10 rats of the same strain (a control group) were also treated with the same stress, but after administration of an aqueous 1% CMC solution.\nJust after removing the rats from the water, they were clubbed to death and their stomachs were extirpated. Then, about 1.5x10^-5m^3 (15 ml) of an aqueous 1% formaldehyde solution was injected into each stomach. After maintaining the formaldehyde solution in the stomachs for 10 minutes to enable the solution to contact to the inner stomach wall, each stomach was cut open along the greater curvature to examine the length of erosion (in 10\" m (mm)) generated on the mucosa of the glandular stomach region under an anatomical microscope. The sum of the length of erosion for rats of one group was represented by the ulcer coefficient. The rate of inhibition of the occurrence of the ulcer by each compound was obtained by the same method as in 1-1), the results being shown also in Table 1.\nas §1"}, "Aspirin-induced ulcer": {"system": "Aspirin-induced ulcer", "experiment": "Aspirin-induced ulcer", "format": "in vivo", "conditions": "Rattus norvegicus; rats, 100 mg/kg intraduodenally, aspirin 100 mg/kg orally, 7 hours, length of erosion; read-out: Rate of inhibition, Aspirin-ulcer (%)", "method": "One group of 10 rats of body weight of from 2x10^-1 to 2.5x10^-1 kg (200 to 250 g) was subjected to laparotomy under ether-anaesthesia, after 24 hour-fasting with ad lib. taking water, to have ligature of their pylorus (according to Okabe et al., 1974). Just after the ligature, an aqueous suspension of one of the compounds of the invention in a 1% CMC solution was intraduodenally administered to the rats at a dose of 10^-4 kg/kg (100 mg/kg). After closing the abdomen, an aqueous dispersion of aspirin in a 1% CMC solution was orally administered at a dose of 10^-4 kg/kg (100 mg/kg). After 7 hours of the aspirin administration, the stomach was extirpated under ether-anaesthesia, and the length (in 10^-3m (mm)) of erosions generated on the mucosa of the glandular stomach region was measured. The sum of the length of erosion on rats of one group was represented by the ulcer coefficient. The same procedures were carried out on another group of 10 rats of the same strain (a control group) except that an aqueous 1% CMC solution was administered instead of the aqueous dispersion of one of the compounds of the present invention. The rate of inhibition of the occurrence of ulcers was obtained by calculation as in 1-2), the results being also shown in Table 1.\nas §1"}},
  "data": [
    {"compound": "CN=C(NC#N)NCCCCn1nc(-c2ccccc2)ccc1=O", "note": "[Compound No. 44, N-cyano-N'-[4-(3-oxo-6-phenyl-2-pyridazinyl)butyl]-N\"-methylguanidine]", "values": [
      {"measurement": "LD50", "setting": "[1]", "value": "> 5000", "unit": "mg/kg"},
      {"measurement": "inhibition in vivo at 100 mg/kg", "setting": "gastric secretion", "value": 77.6, "unit": "%"},
      {"measurement": "inhibition in vivo at 100 mg/kg", "setting": "Shay's ulcer", "value": 97.8, "unit": "%"},
      {"measurement": "inhibition in vivo at 100 mg/kg", "setting": "Stress ulcer", "value": 71.2, "unit": "%"},
      {"measurement": "inhibition in vivo at 100 mg/kg", "setting": "Aspirin-induced ulcer", "value": 97.5, "unit": "%"}
    ]},
    {"compound": "CN=C(NC#N)NCCCCn1nc(-c2ccccc2)cc(C)c1=O", "note": "[Compound No. 81, N-cyano-N'-[4-(4-methyl-3-oxo-6-phenyl-2-pyridazinyl)butyl]-N\"- methylguanidine]", "values": [
      {"measurement": "LD50", "setting": "[1]", "value": "> 5000", "unit": "mg/kg"},
      {"measurement": "inhibition in vivo at 100 mg/kg", "setting": "gastric secretion", "value": 54.2, "unit": "%"},
      {"measurement": "inhibition in vivo at 100 mg/kg", "setting": "Shay's ulcer", "value": 72.4, "unit": "%"},
      {"measurement": "inhibition in vivo at 100 mg/kg", "setting": "Stress ulcer", "value": 63.4, "unit": "%"},
      {"measurement": "inhibition in vivo at 100 mg/kg", "setting": "Aspirin-induced ulcer", "value": 90.8, "unit": "%"}
    ]},
    {"compound": "CN=C(NC#N)NCCSCn1nc(-c2ccccc2)ccc1=O", "note": "[Compound No. 138, N-cyano-N'-[2-{(3-oxo-6-phenyl-2-pyridazinyl)methylthio}ethyl]-N\"-methylguanidine]", "values": [
      {"measurement": "LD50", "setting": "[1]", "value": 4800, "unit": "mg/kg"},
      {"measurement": "inhibition in vivo at 100 mg/kg", "setting": "gastric secretion", "value": 70.2, "unit": "%"},
      {"measurement": "inhibition in vivo at 100 mg/kg", "setting": "Shay's ulcer", "value": 88.3, "unit": "%"},
      {"measurement": "inhibition in vivo at 100 mg/kg", "setting": "Stress ulcer", "value": 68.2, "unit": "%"},
      {"measurement": "inhibition in vivo at 100 mg/kg", "setting": "Aspirin-induced ulcer", "value": 90.2, "unit": "%"}
    ]},
    {"compound": "CCN=C(NC#N)NCCCn1nc(-c2ccccc2)ccc1=O", "note": "[Compound No. 48, N-cyano-N'-[3-(3-oxo-6-phenyl-2-pyridazinyl)propyl]-N\"-ethylguanidine]", "values": [
      {"measurement": "LD50", "setting": "[1]", "value": "> 5000", "unit": "mg/kg"},
      {"measurement": "inhibition in vivo at 100 mg/kg", "setting": "gastric secretion", "value": 51.9, "unit": "%"},
      {"measurement": "inhibition in vivo at 100 mg/kg", "setting": "Shay's ulcer", "value": 76.4, "unit": "%"},
      {"measurement": "inhibition in vivo at 100 mg/kg", "setting": "Stress ulcer", "value": 70.5, "unit": "%"},
      {"measurement": "inhibition in vivo at 100 mg/kg", "setting": "Aspirin-induced ulcer", "value": 93.8, "unit": "%"}
    ]},
    {"compound": "CCN=C(NC#N)NCCCCn1nc(-c2ccccc2)ccc1=O", "note": "[Compound No. 50, N-cyano-N'-[4-(3-oxo-6-phenyl-2-pyridazinyl)butyl]-N\"-ethylguanidine]", "values": [
      {"measurement": "LD50", "setting": "[1]", "value": "> 5000", "unit": "mg/kg"},
      {"measurement": "inhibition in vivo at 100 mg/kg", "setting": "gastric secretion", "value": 59.2, "unit": "%"},
      {"measurement": "inhibition in vivo at 100 mg/kg", "setting": "Shay's ulcer", "value": 73.4, "unit": "%"},
      {"measurement": "inhibition in vivo at 100 mg/kg", "setting": "Stress ulcer", "value": 77.2, "unit": "%"},
      {"measurement": "inhibition in vivo at 100 mg/kg", "setting": "Aspirin-induced ulcer", "value": 86.2, "unit": "%"}
    ]},
    {"compound": "CN=C(NC#N)NCCCCn1nc(-c2ccc(Cl)cc2)ccc1=O", "note": "[Compound No. 59, N-cyano-N'-[4-{6-(4-chlorophenyl)-3-oxo-2-pyridazinyl}butyl]-N\"- methylguanidine]", "values": [
      {"measurement": "LD50", "setting": "[1]", "value": 4800, "unit": "mg/kg"},
      {"measurement": "inhibition in vivo at 100 mg/kg", "setting": "gastric secretion", "value": 63.1, "unit": "%"},
      {"measurement": "inhibition in vivo at 100 mg/kg", "setting": "Shay's ulcer", "value": 61.5, "unit": "%"},
      {"measurement": "inhibition in vivo at 100 mg/kg", "setting": "Stress ulcer", "value": 72.1, "unit": "%"},
      {"measurement": "inhibition in vivo at 100 mg/kg", "setting": "Aspirin-induced ulcer", "value": 89.5, "unit": "%"}
    ]},
    {"compound": "CN=C(NC#N)NCCCCn1nc(-c2ccc(C)cc2)ccc1=O", "note": "[Compound No. 65, N-cyano-N'-[4-{6-(4-methylphenyl)-3-oxo-2-pyridazinyl}butyl]-N\"- methylguanidine]", "values": [
      {"measurement": "LD50", "setting": "[1]", "value": "> 5000", "unit": "mg/kg"},
      {"measurement": "inhibition in vivo at 100 mg/kg", "setting": "gastric secretion", "value": 58.5, "unit": "%"},
      {"measurement": "inhibition in vivo at 100 mg/kg", "setting": "Shay's ulcer", "value": 70.3, "unit": "%"},
      {"measurement": "inhibition in vivo at 100 mg/kg", "setting": "Stress ulcer", "value": 70.5, "unit": "%"},
      {"measurement": "inhibition in vivo at 100 mg/kg", "setting": "Aspirin-induced ulcer", "value": 91.4, "unit": "%"}
    ]},
    {"compound": "CCN=C(NC#N)NCCCCCn1nc(-c2ccccc2)ccc1=O", "note": "[Compound No. 53, N-cyano-N'-[5-(3-oxo-6-phenyl-2-pyridazinyl)pentyl]-N\"-ethylguanidine]", "values": [
      {"measurement": "LD50", "setting": "[1]", "value": "> 5000", "unit": "mg/kg"},
      {"measurement": "inhibition in vivo at 100 mg/kg", "setting": "gastric secretion", "value": 68.5, "unit": "%"},
      {"measurement": "inhibition in vivo at 100 mg/kg", "setting": "Shay's ulcer", "value": 93.2, "unit": "%"},
      {"measurement": "inhibition in vivo at 100 mg/kg", "setting": "Stress ulcer", "value": 79, "unit": "%"},
      {"measurement": "inhibition in vivo at 100 mg/kg", "setting": "Aspirin-induced ulcer", "value": 90.6, "unit": "%"}
    ]}
  ]
}
